This is an account of results in patent US7754913B2, “Synthesis of isotopically labeled alpha-keto acids and esters” (Cambridge Isotope Laboratories, Inc., priority 2006, dated 2010).

The conditions of data set [1]: cited from earlier work.
Data set [2] is described as follows: Concentration studies: stability of pyruvic acid solutions in water at higher concentrations. The format is physicochemical. Particulars: each of the concentrations of Table 2; light for 6-weeks; about 22° C. to about 26° C. As for the experimental part:
Each of these commercial solutions were subjected to light for 6-weeks at temperatures ranging from about 22° C. to about 26° C. At each of the concentrations listed below, it was discovered that the pyruvic acid solutions were stable.

Data set [3] in a line: Shelf storage stability of [1-13C] pyruvic acid in water, 1H and 13C NMR spectra compared. Particulars: 0.025M in water; for Storage stability, Duration 12 weeks / Storage stability, Duration 17 weeks: NMR; for Shelf stability (NMR spectra unchanged): each of the samples, all conditions of Table 1. The data set is classed as physicochemical. As to the method: Samples of isotopically labeled [1-^13C] pyruvic acid, having Formula VI and synthesized as discussed immediately below, were subjected to various conditions as depicted in Table 1, in order to establish the compound's shelf storage stability.
The resulting [1-^13C] pyruvic acid was tested as follows in Table 1:
^1H and ^13C NMR spectra of the distilled [1-^13C] pyruvic acid in water (0.025M) were acquired at the onset of the study and prior to exposing the samples to the various conditions specified in Table 1. ^1H and ^13C NMR spectra were again acquired for each of the samples after being exposed to the aforementioned conditions on a weekly basis for 12-weeks. The spectra acquired after exposure were compared visually and appeared to remain unchanged as compared with the spectra acquired prior to exposure, i.e. the spectra were as expected for [1-^13C] pyruvic acid in water. As such, it was concluded that each of the samples were shelf stable. Similarly, ^1H and ^13C NMR spectra acquired after 17-weeks of exposure remained unchanged as compared with the spectra acquired prior to exposure.

[4] abbreviates: Sample 3, Room temperature (about 22° C. to about 26° C.), Dark.
Setting [5] is: Sample 4, Room temperature (about 22° C. to about 26° C.), Light.

Molecules are shown by their SMILES.

On to `CC(=O)C(=O)O` [Pyruvic acid, 2-oxopropanoic acid, reference compound], for which, in data set [1], the Solubility in water entry was “soluble”. Further, the “Stability of solutions in water” value in data set [2] was “stable”.
Regarding `CC(=O)[13C](=O)O` [[1-^13C] pyruvic acid], the “Storage stability, Duration 12 weeks” value in data set [3] (Sample 1, −10° C., Dark) is “Stable”; in data set [3] (Sample 2, 4° C., Dark) it was “Stable”; in data set [3] (setting [4]), “Stable”; in data set [3] (setting [5]), “Stable”. Also, the “Storage stability, Duration 17 weeks” value in data set [3] (Sample 1, −10° C., Dark) is reported as “Stable”; in data set [3] (Sample 2, 4° C., Dark), “Stable”; in data set [3] (setting [4]), “Stable”; in data set [3] (setting [5]), “Stable”. Also, the “Shelf stability (NMR spectra unchanged)” value in data set [3] (after 17-weeks) and in data set [3] (weekly for 12-weeks) was “shelf stable” throughout.
